Experimental findings from patent US12617799B2, “Pyrazolopyrimidinone compounds” (Orphagen Pharmaceuticals, Inc., priority 2021, dated 2026) are described below.

One assay has as its target T1, human SF-1 (Homo sapiens, UniProt Q13285).
T1 construct: expressed in transfected cells; host or cells: CHO-K1 cells (Chinese hamster ovary), transient cotransfection with pG5luc
The assay can be described thus: SF-1 Luc assay (Gal4DBD-SF-1LBD luciferase reporter in transfected CHO-K1 cells). In kind it is cell-based. The settings on record: for pEC50: CHO-K1 cells transfected with GAL4-SF-1 plasmid, 40 hours incubation, read-out: hSF-1-Luc: EC50. From the text: BamHI and XbaI sites introduced by the primers […] (forward) and […] (reverse) were used for subcloning the amplicon into pFA-CMV.
Cells were routinely cultured by splitting them from 1:10 to 1:20. […] Four hours after transfection, cells were trypsinized and suspended to a concentration of 1.6×10^5 cells/ml in supplemented Ham's F-12 media.
Assays: The collected cells were resuspended in the culture medium and plated into a 384 well-white plate (Corning Life Sciences, Acton, MA) at 8,000 cells/50 μL/well.
Measurement of SF-1 Transcriptional Activity: SF-1 transcriptional activity was detected as the intracellular Luc activity using SteadyLite Plus HTS Reporter Gene Assay System. After the measurement of the cell viability, the culture media in the 384 well-plate were completely removed. Then, 30 μL of the Luc substrate solution was added into each well and incubated for 10 min at room temperature. After the incubation, luminescence of each well was measured by a microplate reader.
Calculation of the SF-1 Transcriptional Activity (% of Control): The % of control for the transcriptional activity was calculated according to the following equation: % of control=A/B×100 Equation • A: luminescence count in the test article-treated CHO cells transfected with GAL4-SF-1 plasmid • B: mean luminescence count in the vehicle-treated CHO cells transfected with GAL4-SF-1 plasmid
On the technique in general: In a reporter assay the amount or activity of a reporter protein is the signal.

The subject of assay [1] is rat Leydig tumor cell line R2C. As to the kind of experiment: R2C proliferation assay for SF-1 antagonists (EdU incorporation). In kind it is cell-based. The settings on record: for pEC50: read-out: R2C: EC50; for inhibition at 8 µM: Leydig. How it is done:
SF-1 regulates progenitor cell formation and survival in adult Leydig cells. Anti-proliferative effects of SF-1 antagonists using a SF-1+ rat Leydig tumor cell line, R2C, was investigated. Cell proliferation was measured by detecting DNA incorporation of EdU, a nucleoside analogue that can be fluorescently tagged after cell fixation.
Proliferation of the rat Leydig tumor cell line R2C (ATCC® CCL-97™) was assessed using 5-ethynyl-2′-deoxyuridine (EdU), a nucleoside analogue incorporated during DNA synthesis that can be fluorescently tagged after cell fixation. Cycloheximide, a protein synthesis inhibitor, was used as a positive control for the assay.
R2C cells are maintained according to a protocol provided by the American Type Culture Collection (ATCC). At the time of assay, R2C cells were diluted to 1.0 million cells/mL with culture medium (F12 medium supplemented with 2% FBS and 1% Penicillin-Streptomycin) and 50 uL of cell suspension seeded into each well of 384-well clear bottom plates. The assay plates were incubated in a humidified, 37° C., 6% CO2 atmosphere for 24 hours. Serially diluted SF-1 antagonists, cycloheximide or vehicle (DMSO) were then applied to the R2C cells and incubated in a humidified, 37° C., 6% CO2 atmosphere for two days. EdU (Invitrogen), at a final concentration of 5 μM, was added to the cells and incubated for an additional 16 hours, after which cells were fixed with 10% formalin.
Cells were then washed and permeabilized in 0.5% TritonX-100/PBS solution at RT for 1 hour. EdU incorporation was detected by labeling EdU with 6-FAM azide (Lumiprobe) using a copper (I)-catalyzed Click reaction between an azide and alkyne. The reaction mixture consists of 5 mM ascorbic acid, 1 mM CuSO4, 1 μM 6-FAM azide dissolved in PBS buffer. […] For data normalization, the average fluorescence of DMSO wells was defined as 100%, and average fluorescence of 10 μM cycloheximide wells was defined as 0%. Curve fitting and EC50 determination were performed using the variable slope sigmoidal dose-response analysis.
R2C cells were routinely cultured in R2C culture medium. To assay SF-1 antagonist inhibitory activity, R2C cells were resuspended in the R2C plating medium and plated into a 384 well-clear bottom black plate at 20,000 cells/50 μL/well. […] 10 μL EdU plating solution were then dispensed into each well of assay plate incubated at 37° C., 6% CO2 for two days.
R2C proliferation is measured by detecting the fluorescent labelled EdU. The R2C assay plates were fixed by dispense 60 μL of 10% formalin into each well, and the plates were incubated at room temperature for 1 hour on an orbital shaker. The plates were washed with 80 μL of PBS three times, and cells were permeabilized by treating with 100 μL of PBS-0.5% TritonX-100 at RT for 1 hour on an orbital shaker. The plates were washed with 80 μL of PBS three times, and after the last wash, 25 μL of PBS was dispensed into each well. 25 μL of 2× mounting mix solution was then added into each well of fixed cells, and the plates were incubated at RT for 30 min in the dark on an orbital shaker. The cells were washed with 80 μL of PBS, three times, and after the last wash, 25 μL of PBS was dispensed into each well. […] The cells were washed with 80 μL of PBS, three times, and after the last wash, 50 μL of PBS was dispensed into each well. Assay plates were sealed with aluminum foil, and fluorescence was measured using a Envision microplate reader.
The % of control for the proliferation activity was calculated according to the following equation: % of control=100×(A−C)/(B−C) Equation • A: fluorescence count in the test article-treated R2C cells • B: mean fluorescence count in the vehicle-treated R2C cells • C: mean fluorescence count in the 10 μM cycloheximide-treated R2C cells

pEC50: −log10 of the molar value. Like-named read-outs stand apart in the source and are kept apart here. Some results are limits rather than exact numbers.

T1 sequence (Q13285 198-461 limits assumed): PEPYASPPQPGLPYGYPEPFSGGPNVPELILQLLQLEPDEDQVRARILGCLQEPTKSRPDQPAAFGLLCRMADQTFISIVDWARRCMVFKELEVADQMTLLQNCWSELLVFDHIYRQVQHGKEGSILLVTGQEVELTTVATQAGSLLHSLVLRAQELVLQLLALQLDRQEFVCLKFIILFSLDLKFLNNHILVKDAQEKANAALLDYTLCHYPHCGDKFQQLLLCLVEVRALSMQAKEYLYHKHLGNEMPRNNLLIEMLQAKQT

What is called pEC50 is −log10 of the EC50, conventionally taken in molar units. For `C[C@@H](O)CO[C@H]1CC[C@H](NC(=O)Cn2cnc3c(Nc4ccc(C(F)(F)F)cc4)nn(C)c3c2=O)CC1` [Compound 23, N-((1R,4r)-4-((R)-2-hydroxypropoxy)cyclohexyl)-2-(1-methyl-7-oxo-3-((4-(trifluoromethyl)phenyl)amino)-1,7-dihydro-6H-pyrazolo[4,3-d]pyrimidin-6-yl)acetamide], the pEC50 on human SF-1 was above 6.70; in assay [1] (R2C cells, EdU incorporation), above 6.70.

Regarding `Cn1nc(Nc2ccc(C(F)(F)F)cc2)c2ncn(CC(=O)N[C@H]3CC[C@H](OCC(C)(C)O)CC3)c(=O)c21` [Compound 24, N-((trans)-4-(2-hydroxy-2-methylpropoxy)cyclohexyl)-2-(1-methyl-7-oxo-3-((4-(trifluoromethyl)phenyl)amino)-1,7-dihydro-6H-pyrazolo[4,3-d]pyrimidin-6-yl)acetamide], the pEC50 on human SF-1 is above 6.70; in assay [1] (R2C cells, EdU incorporation), above 6.70.

On to `Cn1nc(Nc2ccc(C(F)(F)F)cc2)c2ncn(CC(=O)N[C@H]3CC[C@H](C(C)(C)CO)CC3)c(=O)c21` [Compound 27, N-((trans)-4-(1-hydroxy-2-methylpropan-2-yl)cyclohexyl)-2-(1-methyl-7-oxo-3-((4-(trifluoromethyl)phenyl)amino)-1,7-dihydro-6H-pyrazolo[4,3-d]pyrimidin-6-yl)acetamide], for which the negative-log EC50 (pEC50) is above 6.70 at human SF-1 and above 6.70 in assay [1] (R2C cells, EdU incorporation).

For the molecule `Cn1nc(Nc2ccc(C(F)(F)F)cc2)c2ncn(CC(=O)N[C@H]3CC[C@H](O)CC3)c(=O)c21` [Compound 28, N-((trans)-4-hydroxycyclohexyl)-2-(1-methyl-7-oxo-3-((4-(trifluoromethyl)phenyl)amino)-1,7-dihydro-6H-pyrazolo[4,3-d]pyrimidin-6-yl)acetamide], the pEC50 at human SF-1 is 6.00 to 6.70; in assay [1] (R2C cells, EdU incorporation), 5.00 to 6.00.

Turning to `Cn1nc(Nc2ccc(C(F)(F)F)cc2)c2ncn(CC(=O)N[C@H]3CC[C@H](OC(F)F)CC3)c(=O)c21` [Compound 32, N-((1r,4r)-4-(difluoromethoxy)cyclohexyl)-2-(1-methyl-7-oxo-3-((4-(trifluoromethyl)phenyl)amino)-1,7-dihydro-6H-pyrazolo[4,3-d]pyrimidin-6-yl)acetamide], the pEC50 (at human SF-1; in assay [1] (R2C)) was above 6.70 throughout.

Consider `Cn1nc(Nc2ccc(C(F)(F)F)cc2)c2ncn(CC(=O)N[C@H]3CC[C@@H](OC(F)F)CC3)c(=O)c21` [Compound 36, N-((1s,4s)-4-(difluoromethoxy)cyclohexyl)-2-(1-methyl-7-oxo-3-((4-(trifluoromethyl)phenyl)amino)-1,7-dihydro-6H-pyrazolo[4,3-d]pyrimidin-6-yl)acetamide], for which the values for the pEC50 (on human SF-1; in assay [1] (R2C)) were above 6.70 and 6.00 to 6.70, respectively.

On to `Cn1nc(Nc2ccc(C(F)(F)F)cc2)c2ncn(CC(=O)N[C@H]3CC[C@H](OCC4CCOCC4)CC3)c(=O)c21` [Compound 39, 2-(1-methyl-7-oxo-3-((4-(trifluoromethyl)phenyl)amino)-1,7-dihydro-6H-pyrazolo[4,3-d]pyrimidin-6-yl)-N-((1r,4r)-4-((tetrahydro-2H-pyran-4-yl)methoxy)cyclohexyl)acetamide], for which the pEC50 on human SF-1 is above 6.70; in assay [1] (R2C cells, EdU incorporation) it was above 6.70.

In general, inhibition refers to the share of the control response that was lost under treatment. For the molecule `Cn1nc(Nc2ccc(C(F)(F)F)cn2)c2ncn(CC(=O)N[C@H]3CC[C@H](OCC(C)(C)O)CC3)c(=O)c21` [Compound 52, N-((1r,4r)-4-(2-hydroxy-2-methylpropoxy)cyclohexyl)-2-(1-methyl-7-oxo-3-((5-(trifluoromethyl)pyridin-2-yl)amino)-1,7-dihydro-6H-pyrazolo[4,3-d]pyrimidin-6-yl)acetamide], the pEC50 on human SF-1 was 5.00 to 6.00. In assay [1], the inhibition at 8 µM worked out at 72%.

In the case of `Cn1nc(Nc2ccc(C(F)(F)F)cn2)c2ncn(CC(=O)N[C@H]3CC[C@H](OC(F)F)CC3)c(=O)c21` [Compound 55, N-((1r,4r)-4-(difluoromethoxy)cyclohexyl)-2-(1-methyl-7-oxo-3-((5-(trifluoromethyl)pyridin-2-yl)amino)-1,7-dihydro-6H-pyrazolo[4,3-d]pyrimidin-6-yl)acetamide], the negative logarithm of the EC50 (pEC50) is 6.00 to 6.70 on human SF-1 and 5.00 to 6.00 in assay [1] (R2C cells, EdU incorporation).

In the case of `COc1ccc(NC(=O)Cn2cnc3c(Nc4ccc(C(F)(F)F)cn4)n[nH]c3c2=O)cc1F` [Compound 63, N-(3-fluoro-4-methoxyphenyl)-2-(7-oxo-3-((5-(trifluoromethyl)pyridin-2-yl)amino)-1,7-dihydro-6H-pyrazolo[4,3-d]pyrimidin-6-yl)acetamide], the inhibition at 8 µM at human SF-1 (CHO-K1, read-out: hSF-1-Luc: inhibition at 8 uM) was 75%; in assay [1], 19%.

Consider `COc1ccc(NC(=O)Cn2cnc3c(Nc4ccc(C(F)(F)F)cn4)nn(C)c3c2=O)cc1F` [Compound 64, N-(3-fluoro-4-methoxyphenyl)-2-(1-methyl-7-oxo-3-((5-(trifluoromethyl)pyridin-2-yl)amino)-1,7-dihydro-6H-pyrazolo[4,3-d]pyrimidin-6-yl)acetamide], for which the pEC50 is 5.00 to 6.00 on human SF-1 and 5.00 to 6.00 in assay [1] (R2C cells, EdU incorporation).

Turning to `Cn1nc(Nc2ccc(C(F)(F)F)nc2)c2ncn(CC(=O)N[C@H]3CC[C@H](OC(F)F)CC3)c(=O)c21` [Compound 65, N-((1r,4r)-4-(difluoromethoxy)cyclohexyl)-2-(1-methyl-7-oxo-3-((6-(trifluoromethyl)pyridin-3-yl)amino)-1,7-dihydro-6H-pyrazolo[4,3-d]pyrimidin-6-yl)acetamide], the pEC50 was above 6.70 at human SF-1 and 6.00 to 6.70 in assay [1] (R2C cells, EdU incorporation).

Turning to `Cn1nc(Nc2ccc(C(F)(F)F)nc2)c2ncn(CC(=O)N[C@H]3CC[C@H](OCC(C)(C)O)CC3)c(=O)c21` [Compound 68, N-((1r,4r)-4-(2-hydroxy-2-methylpropoxy)cyclohexyl)-2-(1-methyl-7-oxo-3-((6-(trifluoromethyl)pyridin-3-yl)amino)-1,7-dihydro-6H-pyrazolo[4,3-d]pyrimidin-6-yl)acetamide], the pEC50 at human SF-1 is 6.00 to 6.70; in assay [1] (R2C cells, EdU incorporation), 5.00 to 6.00.

Take `COc1ccc(NC(=O)Cn2cnc3c(Nc4ccc(OC(C)C)cc4)nn(C)c3c2=O)cc1F` [Compound 70, N-(3-fluoro-4-methoxyphenyl)-2-(3-((4-isopropoxyphenyl)amino)-1-methyl-7-oxo-1,7-dihydro-6H-pyrazolo[4,3-d]pyrimidin-6-yl)acetamide]: the pEC50 is above 6.70 on human SF-1 and 5.00 to 6.00 in assay [1] (R2C cells, EdU incorporation).

In the case of `COc1ccc(NC(=O)Cn2cnc3c(Nc4ccc(Cl)cc4)nn(C)c3c2=O)cc1F` [Compound 71, 2-(3-((4-chlorophenyl)amino)-1-methyl-7-oxo-1,7-dihydro-6H-pyrazolo[4,3-d]pyrimidin-6-yl)-N-(3-fluoro-4-methoxyphenyl)acetamide], the pEC50 (at human SF-1; in assay [1] (R2C)) was above 6.70 each time.
